We go through one compound from patent US11351142B2, “Composition and method for treating neuronal ceroid lipofuscinosis” (Rush University Medical Center, priority 2012, dated 2022).

What all share (format): cell-based
Assay [1] concerns TPP1. Description: Immunofluorescence for TPP1 in mouse primary astrocytes. As for the experimental part: Astroglia were isolated from mixed glial cultures as described (17,18) according to the procedure of Giulian and Baker (19). Briefly, on day 9, the mixed glial cultures were washed three times with Dulbecco's modified Eagle's medium/F-12 and subjected to shaking at 240 rpm for 2 h at 37° C. on a rotary shaker to remove microglia. After 2 days, the shaking was repeated for 24 h for the removal of oligodendroglia and to ensure the complete removal of all nonastroglial cells. The attached cells were seeded onto new plates for further studies. Immunocytochemistry was performed as described earlier (25). Briefly, 8 well chamber slides containing mouse primary astrocytes, mouse neurons, human primary astrocytes or SH-SY5Y cells were cultured to 70-80% confluence were fixed with chilled Methanol (Fisher Scientific, Waltham, Mass.) overnight, followed by two brief rinses with filtered PBS. Samples were blocked with 2% BSA (Fisher Scientific) in PBS containing Tween 20 (Sigma) and Triton X-100 (Sigma) for 30 min and incubated at room temperature under shaking conditions for 2 hr in PBS containing the following anti-mouse primary antibodies: […] Santa Cruz Biotech, Santa Cruz, Calif.), GFAP, (1:100; Santa Cruz), and 3-tubulin (1:5000; Millipore). […] The samples were run in an EtOH and Xylene (Fisher) gradient, mounted and observed under Olympus BX41 fluorescence microscope.

The test system of assay [2] is TPP1. Description: Immunofluorescence for TPP1 in mouse primary neurons. As to conditions: mouse neurons from cortex, hippocampus, and striatum; 25 μM gemfibrozil and 10 μM fenofibrate, 24 hrs. As for the experimental part:
Following four 15 minute washes with filtered PBS, cells were incubated for 4-5 min with 4′, 6-diamidino-2-phenylindole (DAPI, 1:10,000; Sigma).

Assay [3] has as its system TPP1. As to the kind of experiment: Western blot for TPP1 in mouse primary neurons. As to conditions: neurons from cortex, hippocampus, striatum; 25 μM gemfibrozil, 24 hrs. As for the experimental part: Fetal (E18-E16) mouse neurons were prepared as previously described (23) with modifications. Whole brains were removed and cortical, hippocampal, striatal and cerebellar fractions were dissected in serum free Neurobasal media. The cells were washed by centrifugation three times at 1200 rpm for 10 min, the pellet dissociated and the cells plated at 10% confluence in 8-well chamber slides pre-treated for >2 hr with Poly-D-Lysine (Sigma, St. Louis, Mo.). After 4 min, the non-adherent cell suspension was aspirated and […] complete Neurobasal media (Invitrogen) supplemented with 2% B27 was added to each well. The cells were incubated for 4 days prior to experimentation. […] The cells were stimulated with gemfibrozil in Neurobasal media supplemented with 2% B27 minus antioxidants (Invitrogen) for 24 hr prior to methanol fixation and immunostaining.
Western blotting was conducted as described earlier (27,28) with modifications. Briefly, cells were scraped in double-distilled H20 and sodium dodecyl sulfate (SDS), electrophoresed on NuPAGE® Novex® 4-12% Bis-Tris gels (Invitrogen) and proteins transferred onto a nitrocellulose membrane (Bio-Rad) using the Thermo-Pierce Fast Semi-Dry Blotter. […]
Protein blots were analyzed using ImageJ (NIH, Bethesda, Md.) and bands were normalized to their respective β-actin loading controls. […]
For orientation: In western blotting, separated proteins are transferred to a membrane and probed.

On to `Cc1ccc(C)c(OCCCC(C)(C)C(=O)O)c1` [gemfibrozil], for which the “TPP1 (immunofluorescence)” value is on record as “little or no increase” in the assay with TPP1 [1] (PPARα−/− astrocytes compared to WT and PPARβ−/− cells, 25 μM gemfibrozil and 10 μM fenofibrate, 24 hrs); “significant increase” in the assay with TPP1 [2]. Besides, in the assay on TPP1 [1] (mouse primary astrocytes, different concentrations), the “TPP1 protein (immunofluorescence)” value is on record as “dose dependant increase”. Besides, the “increase in TPP1 protein (Western blot, densitometric quantification)” value in the assay with TPP1 [3] is 2-3 fold.
